Data from the NIST ThermoML archive (doi:10.1016/j.jct.2014.01.006).
“And” between values parts separate entries of the source, which are not always exact repeats. Equal entries are not always repeated. ± gives the expanded uncertainty stated by the source.

Assay: molar heat capacity at saturation pressure

c1ccc(-c2cccc3ccccc23)cc1 [1-phenylnaphthalene]
Details	molar heat capacity
57.98 K, Crystal, Vacuum adiabatic calorimetry	61.8 ± 0.13 J/K/mol
60 K, Crystal, Vacuum adiabatic calorimetry	63.39 ± 0.13 J/K/mol
61.92 K, Crystal, Vacuum adiabatic calorimetry	65.08 ± 0.14 J/K/mol
63.69 K, Crystal, Vacuum adiabatic calorimetry	66.18 ± 0.14 J/K/mol
66.86 K, Crystal, Vacuum adiabatic calorimetry	68.59 ± 0.14 J/K/mol
70 K, Crystal, Vacuum adiabatic calorimetry	70.93 ± 0.15 J/K/mol
70.04 K, Crystal, Vacuum adiabatic calorimetry	71 ± 0.15 J/K/mol
71.83 K, Crystal, Vacuum adiabatic calorimetry	72.22 ± 0.15 J/K/mol
76.82 K, Crystal, Vacuum adiabatic calorimetry	75.66 ± 0.16 J/K/mol
77.08 K, Crystal, Vacuum adiabatic calorimetry	75.91 ± 0.16 J/K/mol
80 K, Crystal, Vacuum adiabatic calorimetry	77.87 ± 0.16 J/K/mol
81.77 K, Crystal, Vacuum adiabatic calorimetry	79.16 ± 0.16 J/K/mol
84.85 K, Crystal, Vacuum adiabatic calorimetry	81.07 ± 0.17 J/K/mol
86.7 K, Crystal, Vacuum adiabatic calorimetry	82.3 ± 0.17 J/K/mol
90 K, Crystal, Vacuum adiabatic calorimetry	84.45 ± 0.22 J/K/mol
92.7 K, Glass, Vacuum adiabatic calorimetry	86.97 ± 0.22 J/K/mol
93.5 K, Crystal, Vacuum adiabatic calorimetry	86.69 ± 0.22 J/K/mol
100 K, Crystal, Vacuum adiabatic calorimetry	90.82 ± 0.22 J/K/mol
102.16 K, Glass, Vacuum adiabatic calorimetry	93.03 ± 0.22 J/K/mol
102.86 K, Crystal, Vacuum adiabatic calorimetry	92.63 ± 0.22 J/K/mol
111.98 K, Glass, Vacuum adiabatic calorimetry	99.33 ± 0.23 J/K/mol
112.57 K, Crystal, Vacuum adiabatic calorimetry	98.86 ± 0.23 J/K/mol
120 K, Crystal, Vacuum adiabatic calorimetry	103.63 ± 0.24 J/K/mol
122.36 K, Crystal, Vacuum adiabatic calorimetry	105.15 ± 0.24 J/K/mol
122.48 K, Glass, Vacuum adiabatic calorimetry	106.16 ± 0.24 J/K/mol
132.22 K, Crystal, Vacuum adiabatic calorimetry	111.61 ± 0.25 J/K/mol
133.24 K, Glass, Vacuum adiabatic calorimetry	113.28 ± 0.25 J/K/mol
140 K, Crystal, Vacuum adiabatic calorimetry	116.81 ± 0.25 J/K/mol
142.62 K, Crystal, Vacuum adiabatic calorimetry	118.58 ± 0.26 J/K/mol
144.86 K, Glass, Vacuum adiabatic calorimetry	121.24 ± 0.26 J/K/mol
153.97 K, Crystal, Vacuum adiabatic calorimetry	126.35 ± 0.27 J/K/mol
158.22 K, Glass, Vacuum adiabatic calorimetry	130.67 ± 0.27 J/K/mol
160 K, Crystal, Vacuum adiabatic calorimetry	130.74 ± 0.27 J/K/mol
165.78 K, Crystal, Vacuum adiabatic calorimetry	135.02 ± 0.27 J/K/mol
172.31 K, Glass, Vacuum adiabatic calorimetry	140.99 ± 0.28 J/K/mol
177.53 K, Crystal, Vacuum adiabatic calorimetry	143.52 ± 0.28 J/K/mol
180 K, Crystal, Vacuum adiabatic calorimetry	145.34 ± 0.28 J/K/mol
183.8 K, Crystal, Vacuum adiabatic calorimetry	148.26 ± 0.29 J/K/mol
184.4 K, Glass, Vacuum adiabatic calorimetry	150.13 ± 0.29 J/K/mol
189.34 K, Crystal, Vacuum adiabatic calorimetry	152.49 ± 0.29 J/K/mol
193.62 K, Glass, Vacuum adiabatic calorimetry	157.14 ± 0.3 J/K/mol
195.08 K, Crystal, Vacuum adiabatic calorimetry	157.04 ± 0.3 J/K/mol
198.88 K, Glass, Vacuum adiabatic calorimetry	161.79 ± 0.3 J/K/mol
200 K, Crystal, Vacuum adiabatic calorimetry	160.73 ± 0.3 J/K/mol
201.24 K, Crystal, Vacuum adiabatic calorimetry	161.76 ± 0.3 J/K/mol
201.34 K, Glass, Vacuum adiabatic calorimetry	162.43 ± 0.31 J/K/mol
206.16 K, Crystal, Vacuum adiabatic calorimetry	165.72 ± 0.31 J/K/mol
212.82 K, Glass, Vacuum adiabatic calorimetry	180.93 ± 0.32 J/K/mol
217.01 K, Crystal, Vacuum adiabatic calorimetry	174.74 ± 0.32 J/K/mol
220 K, Crystal, Vacuum adiabatic calorimetry	177.08 ± 0.32 J/K/mol
224.64 K, Liquid, Vacuum adiabatic calorimetry	274.63 ± 0.43 J/K/mol
227.57 K, Crystal, Vacuum adiabatic calorimetry	183.38 ± 0.32 J/K/mol
230.27 K, Liquid, Vacuum adiabatic calorimetry	276.92 ± 0.43 J/K/mol
233.28 K, Liquid, Vacuum adiabatic calorimetry	278.09 ± 0.44 J/K/mol
238.35 K, Crystal, Vacuum adiabatic calorimetry	192.45 ± 0.34 J/K/mol
239.4 K, Liquid, Vacuum adiabatic calorimetry	280.79 ± 0.44 J/K/mol
240 K, Crystal, Vacuum adiabatic calorimetry	193.69 ± 0.34 J/K/mol
242.59 K, Liquid, Vacuum adiabatic calorimetry	282.18 ± 0.44 J/K/mol
249.84 K, Crystal, Vacuum adiabatic calorimetry	202.22 ± 0.35 J/K/mol
252.38 K, Liquid, Vacuum adiabatic calorimetry	286.68 ± 0.45 J/K/mol
252.84 K, Liquid, Vacuum adiabatic calorimetry	287 ± 0.45 J/K/mol
260 K, Crystal, Vacuum adiabatic calorimetry	210.67 ± 0.36 J/K/mol
261.66 K, Crystal, Vacuum adiabatic calorimetry	212.63 ± 0.36 J/K/mol
273.41 K, Crystal, Vacuum adiabatic calorimetry	223.08 ± 0.37 J/K/mol
280 K, Crystal, Vacuum adiabatic calorimetry	228.03 ± 0.38 J/K/mol
284.54 K, Liquid, Vacuum adiabatic calorimetry	303.16 ± 0.47 J/K/mol
285.16 K, Crystal, Vacuum adiabatic calorimetry	237.05 ± 0.39 J/K/mol
293.3 K, Liquid, Vacuum adiabatic calorimetry	308.04 ± 0.47 J/K/mol
297.47 K, Crystal, Vacuum adiabatic calorimetry	243.76 ± 0.4 J/K/mol
297.47 K, Liquid, Vacuum adiabatic calorimetry	310.36 ± 0.47 J/K/mol
298.15 K, Liquid, Vacuum adiabatic calorimetry	310.74 ± 0.47 J/K/mol
300 K, Liquid, Vacuum adiabatic calorimetry	311.8 ± 0.47 J/K/mol
304.21 K, Liquid, Vacuum adiabatic calorimetry	314.19 ± 0.48 J/K/mol
305.11 K, Liquid, Vacuum adiabatic calorimetry	314.67 ± 0.48 J/K/mol
305.83 K, Liquid, Vacuum adiabatic calorimetry	315.13 ± 0.48 J/K/mol
306.22 K, Liquid, Vacuum adiabatic calorimetry	315.36 ± 0.48 J/K/mol
314.2 K, Liquid, Vacuum adiabatic calorimetry	320 ± 0.49 J/K/mol
320 K, Liquid, Vacuum adiabatic calorimetry	323.37 ± 0.49 J/K/mol
321.38 K, Liquid, Vacuum adiabatic calorimetry	324.18 ± 0.49 J/K/mol
337.19 K, Liquid, Vacuum adiabatic calorimetry	333.49 ± 0.51 J/K/mol
340 K, Liquid, Vacuum adiabatic calorimetry	335.17 ± 0.51 J/K/mol
352.74 K, Liquid, Vacuum adiabatic calorimetry	342.77 ± 0.52 J/K/mol
360 K, Liquid, Vacuum adiabatic calorimetry	347.09 ± 0.52 J/K/mol
368.54 K, Liquid, Vacuum adiabatic calorimetry	352.16 ± 0.52 J/K/mol
380 K, Liquid, Vacuum adiabatic calorimetry	359 ± 0.53 J/K/mol
384.76 K, Liquid, Vacuum adiabatic calorimetry	361.84 ± 0.54 J/K/mol
400 K, Liquid, Vacuum adiabatic calorimetry	370.85 ± 0.55 J/K/mol
400.59 K, Liquid, Vacuum adiabatic calorimetry	371.18 ± 0.55 J/K/mol
410 K, Liquid, Small sample (50 mg) DSC	374.57 ± 9.1 J/K/mol and 371.91 ± 9.1 J/K/mol and 371.07 ± 9.1 J/K/mol
415.69 K, Liquid, Vacuum adiabatic calorimetry	380.05 ± 0.56 J/K/mol
420 K, Liquid, Vacuum adiabatic calorimetry	382.51 ± 0.57 J/K/mol
428.68 K, Liquid, Vacuum adiabatic calorimetry	387.41 ± 0.57 J/K/mol
430 K, Liquid, Small sample (50 mg) DSC	384.13 ± 9.4 J/K/mol and 385.46 ± 9.5 J/K/mol and 382.55 ± 9.4 J/K/mol
439.15 K, Liquid, Vacuum adiabatic calorimetry	393.4 ± 0.57 J/K/mol
440 K, Liquid, Vacuum adiabatic calorimetry	393.64 ± 0.57 J/K/mol
450 K, Liquid, Small sample (50 mg) DSC	395.1 ± 9.6 J/K/mol and 393.86 ± 9.6 J/K/mol and 402.09 ± 9.8 J/K/mol
460 K, Liquid, Vacuum adiabatic calorimetry	401.95 ± 0.58 J/K/mol
470 K, Liquid, Small sample (50 mg) DSC	403.25 ± 9.9 J/K/mol and 404.83 ± 9.9 J/K/mol and 407.16 ± 10 J/K/mol
480 K, Liquid, Vacuum adiabatic calorimetry	412.21 ± 0.6 J/K/mol
490 K, Liquid, Small sample (50 mg) DSC	411.48 ± 10 J/K/mol and 416.14 ± 10 J/K/mol and 419.05 ± 10 J/K/mol
500 K, Liquid, Vacuum adiabatic calorimetry	422.42 ± 0.61 J/K/mol
510 K, Liquid, Small sample (50 mg) DSC	426.2 ± 10 J/K/mol and 428.36 ± 10 J/K/mol and 429.11 ± 10 J/K/mol
520 K, Liquid, Vacuum adiabatic calorimetry	432.63 ± 0.62 J/K/mol
530 K, Liquid, Small sample (50 mg) DSC	435.1 ± 11 J/K/mol and 439.09 ± 11 J/K/mol and 438.67 ± 11 J/K/mol
540 K, Liquid, Vacuum adiabatic calorimetry	442.84 ± 0.63 J/K/mol
550 K, Liquid, Small sample (50 mg) DSC	444.66 ± 11 J/K/mol and 449.81 ± 11 J/K/mol and 447.07 ± 11 J/K/mol
560 K, Liquid, Vacuum adiabatic calorimetry	453.01 ± 0.65 J/K/mol
570 K, Liquid, Small sample (50 mg) DSC	452.81 ± 11 J/K/mol and 460.62 ± 11 J/K/mol and 460.45 ± 11 J/K/mol
580 K, Liquid, Vacuum adiabatic calorimetry	463.22 ± 0.66 J/K/mol
590 K, Liquid, Small sample (50 mg) DSC	466.28 ± 11 J/K/mol and 469.1 ± 11 J/K/mol and 471.1 ± 12 J/K/mol
600 K, Liquid, Vacuum adiabatic calorimetry	473.43 ± 0.67 J/K/mol
610 K, Liquid, Small sample (50 mg) DSC	480.83 ± 12 J/K/mol and 476.5 ± 12 J/K/mol and 479.25 ± 12 J/K/mol
620 K, Liquid, Vacuum adiabatic calorimetry	483.64 ± 0.68 J/K/mol
640 K, Liquid, Vacuum adiabatic calorimetry	493.83 ± 0.7 J/K/mol
650 K, Liquid, Vacuum adiabatic calorimetry	498.91 ± 0.7 J/K/mol
